Measured values reported in patent publication US9073881B2, “Benzoic acid derivatives” (HOFFMANN-LA ROCHE INC., priority 2011, dated 2015).

Biological target: Human eIF4E (Homo sapiens (Human), UniProt P06730)
Experiment: Human eIF4E/4G binding assay (time-resolved fluorescence, HH-eIF4E and biotin-labeled 4G2 peptide)
Conditions: inhibition of binding of His-tagged human eIF4E (aa 28-217) to biotin-labeled 4G2 peptide

Chain of Human eIF4E (P06730 28-217): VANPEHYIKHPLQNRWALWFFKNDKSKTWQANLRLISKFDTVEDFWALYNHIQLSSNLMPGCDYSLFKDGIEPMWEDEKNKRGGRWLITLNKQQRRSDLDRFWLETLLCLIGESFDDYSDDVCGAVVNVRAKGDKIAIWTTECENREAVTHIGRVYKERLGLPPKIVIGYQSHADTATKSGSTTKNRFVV

Compound	IC50
O=C(O)c1cc(-c2nc(-c3ccc(Cl)cc3)cs2)ccc1-c1ccccc1[N+](=O)[O-] [Example 13, 4-[4-(4-Chloro-phenyl)-thiazol-2-yl]-2′-nitro-biphenyl-2-carboxylic acid]	5.2 µM
O=C(NCCN1CCOCC1)c1ccc(-c2ccc(-c3nc(-c4ccc(Cl)c(Cl)c4)cs3)cc2C(=O)O)cc1 [Example 59, 4-[4-(3,4-Dichloro-phenyl)-thiazol-2-yl]-4′-(2-morpholin-4-yl-ethylcarbamoyl)-biphenyl-2-carboxylic acid]	> 80 µM
COc1ccc(-c2ccc(-c3nc(-c4ccc(Cl)c(Cl)c4)cs3)cc2C(=O)O)c([N+](=O)[O-])c1 [Example 28, 4-[4-(3,4-Dichloro-phenyl)-thiazol-2-yl]-4′-methoxy-2′-nitro-biphenyl-2-carboxylic acid]	3.2 µM
Cc1ccc(C=O)c(-c2ccc(-c3nc(-c4ccc(Cl)c(Cl)c4)cs3)cc2C(=O)O)c1 [Example 122, 4-[4-(3,4-Dichloro-phenyl)-thiazol-2-yl]-2′-formyl-5′-methyl-biphenyl-2-carboxylic acid]	5.1 µM
O=C(O)c1cc(-c2nc(-c3ccc(Cl)c(Cl)c3)cs2)ccc1-c1cc(C(F)(F)F)ccc1Cl [Example 128, 2′-Chloro-4-[4-(3,4-dichloro-phenyl)-thiazol-2-yl]-5′-trifluoromethyl-biphenyl-2-carboxylic acid]	1.1 µM
O=C(O)c1cc(-c2nc(-c3cccc(Cl)c3)cs2)ccc1-c1ccccc1[N+](=O)[O-] [Example 17, 4-[4-(3-Chloro-phenyl)-thiazol-2-yl]-2′-nitro-biphenyl-2-carboxylic acid]	3.1 µM
O=C(NCCCN1CCOCC1)c1ccc(-c2ccc(-c3nc(-c4ccc(Cl)c(Cl)c4)cs3)cc2C(=O)O)cc1 [Example 58, 4-[4-(3,4-Dichloro-phenyl)-thiazol-2-yl]-4′-(3-morpholin-4-yl-propylcarbamoyl)-biphenyl-2-carboxylic acid]	> 80 µM
CN1CCN(C(=O)c2ccc(-c3ccc(-c4nc(-c5ccc(Cl)c(Cl)c5)cs4)cc3C(=O)O)cc2)CC1 [Example 53, 4-[4-(3,4-Dichloro-phenyl)-thiazol-2-yl]-4′-(4-methyl-piperazine-1-carbonyl)-biphenyl-2-carboxylic acid]	> 80 µM
COc1ccc(-c2ccc(-c3nc(-c4ccc(Cl)c(Cl)c4)cs3)cc2C(=O)O)c(Cl)c1 [Example 94, 2′-Chloro-4-[4-(3,4-dichloro-phenyl)-thiazol-2-yl]-4′-methoxy-biphenyl-2-carboxylic acid]	1.5 µM
O=C(NCc1ccc(F)cc1)c1ccc(-c2ccc(-c3nc(-c4ccc(Cl)c(Cl)c4)cs3)cc2C(=O)O)cc1 [Example 72, 4-[4-(3,4-Dichloro-phenyl)-thiazol-2-yl]-4′-(4-fluoro-benzylcarbamoyl)-biphenyl-2-carboxylic acid]	1.5 µM
O=C(O)c1cc(-c2nc(-c3ccccn3)cs2)ccc1-c1ccccc1[N+](=O)[O-] [Example 37, 2′-Nitro-4-(4-pyridin-2-yl-thiazol-2-yl)-biphenyl-2-carboxylic acid]	> 80 µM
CS(=O)(=O)c1ccc(-c2csc(-c3ccc(-c4ccccc4[N+](=O)[O-])c(C(=O)O)c3)n2)cc1 [Example 33, 4-[4-(4-Methanesulfonyl-phenyl)-thiazol-2-yl]-2′-nitro-biphenyl-2-carboxylic acid]	> 80 µM
CC(=O)N1CCC(NC(=O)c2ccc(-c3ccc(-c4nc(-c5ccc(Cl)c(Cl)c5)cs4)cc3C(=O)O)cc2)CC1 [Example 52, 4′-(1-Acetyl-piperidin-4-ylcarbamoyl)-4-[4-(3,4-dichloro-phenyl)-thiazol-2-yl]-biphenyl-2-carboxylic acid]	10 µM
Cc1cc(C(=O)O)ccc1-c1ccc(-c2nc(-c3ccc(Cl)c(Cl)c3)cs2)cc1C(=O)O [Example 79, 4-[4-(3,4-Dichloro-phenyl)-thiazol-2-yl]-2′-methyl-biphenyl-2,4′-dicarboxylic acid]	5.4 µM

The remaining lines, values ahead:

IC50	Compound
1.9 µM	O=C(O)c1cc(-c2nc(-c3ccc(Cl)c(Cl)c3)cs2)ccc1-c1cccc(F)c1F [Example 138, 4-[4-(3,4-Dichloro-phenyl)-thiazol-2-yl]-2′,3′-difluoro-biphenyl-2-carboxylic acid]
1.4 µM	O=C(O)c1cc(-c2nc(-c3ccc(Cl)c(Cl)c3)cs2)ccc1-c1ccc(Cl)cc1Cl [Example 150, 2′,4′-Dichloro-4-[4-(3,4-dichloro-phenyl)-thiazol-2-yl]-biphenyl-2-carboxylic acid]
3.6 µM	O=C(O)c1cc(-c2nc(-c3ccc(Cl)c(Cl)c3)cs2)ccc1-c1ccccc1F [Example 137, 4-[4-(3,4-Dichloro-phenyl)-thiazol-2-yl]-2′-fluoro-biphenyl-2-carboxylic acid]
> 80 µM	O=C(O)c1cc(-c2nc(-c3ccc(Cl)c(Cl)c3)cs2)ccc1-c1cc(Cl)cc(Cl)c1Cl [Example 149, 2′,3′,5′-Trichloro-4-[4-(3,4-dichloro-phenyl)-thiazol-2-yl]-biphenyl-2-carboxylic acid]
1.7 µM	O=C(O)c1cc(-c2nc(-c3ccc(Cl)c(Cl)c3)cs2)ccc1-c1cc(Cl)ccc1Cl [Example 148, 2′,5′-Dichloro-4-[4-(3,4-dichloro-phenyl)-thiazol-2-yl]-biphenyl-2-carboxylic acid]
1.7 µM	O=C(O)c1cc(-c2nc(-c3ccc(Cl)c(Cl)c3)cs2)ccc1-c1sccc1Cl [Example 146, 2-(3-Chloro-thiophen-2-yl)-5-[4-(3,4-dichloro-phenyl)-thiazol-2-yl]-benzoic acid]
